Where two headings read alike, the source gives them in different places.
Columns and labels:
[1] = system: Schleimbildung und Algenbewuchs; experiment: Efficacy in outdoor cooling circuits, visual assessment of growth on the plates; conditions: phosphonium compound alone, same concentration and frequency (21 ppm twice a week); stated conditionally ('würde')
Text: Untersuchung der Wirksamkeit in Kühlkreisläufen
Die im Freien stehenden (natürliche Sonneneinstrahlung, Staubeinfall, Witterungseinflüsse) Kühlkreisläufe bestanden aus: • a) einem Kunststoffass mit einem Volumen von 113 I und einem Überlauf • b) einer Pumpe (21 1/min bei 3 m Förderhöhe) • c) einem Kühlturm mit Oregon-(Splint), Oregon-(Kernholz), Eiche-, Fichte-, Asbestzement- und PVC-Platte
Die Frischwasser-Zufuhr war so eingestellt, dass der Spritz- und Verdunstungsverlust ausgeglichen wurde und die Biocide in 24 h ungefähr 1:2 verdünnt wurden.
Die Kühlkreisläufe sind durch den natürlichen Staubeinfall und nicht durch gezielte Beimpfung infiziert.
Zur Verhinderung der Schleimbildung und des Algenwuchses wurde der Kühlkreislauf mit 21 ppm 2mal/Woche einer Lösung von 45% der Verbindung 17 und 5% der Verbindung 13 in Wasser behandelt.
Ausgewertet wurde der Versuch durch visuelle Beobachtung des Bewuchses auf den Platten.
Der unbehandelte Kreislauf zeigte schon nach 4 Wochen den ersten Algenbewuchs, die Hölzer waren nach 5 Monaten verschleimt und mit einer dicken Algenschicht überzogen. Der mit 21 ppm 2mal/Woche behandelte Kreislauf zeigte keinerlei Anzeichen von beginnender Schleimbildung und Algenbewuchs.

Tri-n-butylzinnaphtenat [Verbindung 8]
Sn-Verbindung (Mol-%) Endkonzentration (Bsp. 4: as Beispiel 1, Sn compound 8 in solution of P compound 17): 7,1 Mol-%

CCCCCCCCCCCCCC[P+](CCCC)(CCCC)CCCC.[Cl-] [Verbindung 17, Tri-n-butyl-tetradecyl-phosphoniumchlorid]
Unterdrückung des Algenbewuchses [1]: nicht gänzlich unterdrücken | Endkonzentration der P-Verbindung (Beispiel 2: with 3,8 Mol-% of Vrb. 3 dissolved): 15.3 Mol-% | Endkonzentration der P-Verbindung (Beispiel 3: with 2,9 Mol-% of Vrb. 2 dissolved): 16,7 Mol-% | P-Verbindung (Mol-%) Endkonzentration (Bsp. 4: as Beispiel 1, P compound 17 with Sn compound 8): 13,1 Mol-%

CCCCCCCCCCCC[P+](CCCC)(CCCC)CCCC.[Cl-] [Verbindung 16, Tri-n-butyl-n-dodecyl-phosphoniumchlorid]
P-Verbindung (Mol-%) Endkonzentration (Bsp. 6: as Beispiel 1, P compound 16 with Sn compound 2): 17,9 Mol-%

CCCCCCCCCC[P+](CCCC)(CCCC)CCCC.[Cl-] [Verbindung 18, Tri-n-butyl-n-decyl-phosphoniumchlorid]
P-Verbindung (Mol-%) Endkonzentration (Bsp. 5: as Beispiel 1, P compound 18 with Sn compound 2): 19,2 Mol-%

CCCCCCCCCCCCCC[P+](CCCC)(CCCC)CCCC.[Br-] [Verbindung 19, Tri-n-butyl-n-tetradecylphosphoniumbromid]
P-Verbindung (Mol-%) Endkonzentration (Bsp. 7: as Beispiel 1, P compound 19 with Sn compound 2): 15,9 Mol-%

Reference: patent publication EP0109354B1, “Biocidally active mixture” (priority 1982, dated 1984)
